In article PMC7366380, “Discovery of a Potent and Selective Covalent Inhibitor and Activity-Based Probe for the Deubiquitylating Enzyme UCHL1, with Antifibrotic Activity” (Journal of the American Chemical Society, 2020):
Several values for one entry are separate records, joined by “and”; a condition that tells them apart may be missing. Identical values can stand only once.

What was measured:
[1] = molecular target: DUBs and other proteins in HEK293 cells (Homo sapiens, UniProt Q96FW1); assay: Quantitative chemical proteomic profiling of ABP 2 in HEK293 cells: other DUBs and proteins across the proteome; settings: OTUB1, listed as ABP 2
DUBs and other proteins in HEK293 cells (Homo sapiens, UniProt Q96FW1), sequence (Q96FW1 whole entry): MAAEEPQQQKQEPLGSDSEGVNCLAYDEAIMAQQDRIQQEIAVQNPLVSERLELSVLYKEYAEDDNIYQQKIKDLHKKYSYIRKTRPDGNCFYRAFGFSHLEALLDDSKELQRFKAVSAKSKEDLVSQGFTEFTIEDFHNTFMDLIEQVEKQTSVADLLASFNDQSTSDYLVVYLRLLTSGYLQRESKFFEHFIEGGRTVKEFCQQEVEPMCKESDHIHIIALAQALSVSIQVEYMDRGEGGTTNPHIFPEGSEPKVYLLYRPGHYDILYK

[2] = molecular target: DUBs and other proteins in HEK293 cells (Homo sapiens, UniProt Q6P2Q9); assay: as above; settings: PRPF8, listed as ABP 2
[3] = molecular target: DUBs and other proteins in HEK293 cells (Homo sapiens, UniProt P54578); assay: as above; settings: USP14, listed as ABP 2
DUBs and other proteins in HEK293 cells (Homo sapiens, UniProt P54578), sequence (P54578 whole entry): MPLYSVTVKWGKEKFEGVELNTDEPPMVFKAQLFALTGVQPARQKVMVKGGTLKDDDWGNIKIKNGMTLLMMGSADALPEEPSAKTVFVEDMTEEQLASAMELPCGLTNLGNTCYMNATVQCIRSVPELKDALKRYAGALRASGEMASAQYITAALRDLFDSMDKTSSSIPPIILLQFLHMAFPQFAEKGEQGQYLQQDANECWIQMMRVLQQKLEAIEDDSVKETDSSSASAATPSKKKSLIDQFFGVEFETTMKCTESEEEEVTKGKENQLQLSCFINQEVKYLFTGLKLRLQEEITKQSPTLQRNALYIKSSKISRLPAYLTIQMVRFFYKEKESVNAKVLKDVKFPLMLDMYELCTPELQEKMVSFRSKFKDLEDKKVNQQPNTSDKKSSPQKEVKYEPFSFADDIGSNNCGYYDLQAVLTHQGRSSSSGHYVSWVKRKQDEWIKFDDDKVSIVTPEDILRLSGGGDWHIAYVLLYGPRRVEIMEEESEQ

[4] = molecular target: DUBs and other proteins in HEK293 cells (Homo sapiens, UniProt Q93009); assay: as above; settings: USP7, listed as ABP 2
[5] = molecular target: DUBs and other proteins in HEK293 cells (Homo sapiens, UniProt Q93008); assay: as above; settings: USP9X, listed as ABP 2
DUBs and other proteins in HEK293 cells (Homo sapiens, UniProt Q93008), sequence (Q93008 whole entry): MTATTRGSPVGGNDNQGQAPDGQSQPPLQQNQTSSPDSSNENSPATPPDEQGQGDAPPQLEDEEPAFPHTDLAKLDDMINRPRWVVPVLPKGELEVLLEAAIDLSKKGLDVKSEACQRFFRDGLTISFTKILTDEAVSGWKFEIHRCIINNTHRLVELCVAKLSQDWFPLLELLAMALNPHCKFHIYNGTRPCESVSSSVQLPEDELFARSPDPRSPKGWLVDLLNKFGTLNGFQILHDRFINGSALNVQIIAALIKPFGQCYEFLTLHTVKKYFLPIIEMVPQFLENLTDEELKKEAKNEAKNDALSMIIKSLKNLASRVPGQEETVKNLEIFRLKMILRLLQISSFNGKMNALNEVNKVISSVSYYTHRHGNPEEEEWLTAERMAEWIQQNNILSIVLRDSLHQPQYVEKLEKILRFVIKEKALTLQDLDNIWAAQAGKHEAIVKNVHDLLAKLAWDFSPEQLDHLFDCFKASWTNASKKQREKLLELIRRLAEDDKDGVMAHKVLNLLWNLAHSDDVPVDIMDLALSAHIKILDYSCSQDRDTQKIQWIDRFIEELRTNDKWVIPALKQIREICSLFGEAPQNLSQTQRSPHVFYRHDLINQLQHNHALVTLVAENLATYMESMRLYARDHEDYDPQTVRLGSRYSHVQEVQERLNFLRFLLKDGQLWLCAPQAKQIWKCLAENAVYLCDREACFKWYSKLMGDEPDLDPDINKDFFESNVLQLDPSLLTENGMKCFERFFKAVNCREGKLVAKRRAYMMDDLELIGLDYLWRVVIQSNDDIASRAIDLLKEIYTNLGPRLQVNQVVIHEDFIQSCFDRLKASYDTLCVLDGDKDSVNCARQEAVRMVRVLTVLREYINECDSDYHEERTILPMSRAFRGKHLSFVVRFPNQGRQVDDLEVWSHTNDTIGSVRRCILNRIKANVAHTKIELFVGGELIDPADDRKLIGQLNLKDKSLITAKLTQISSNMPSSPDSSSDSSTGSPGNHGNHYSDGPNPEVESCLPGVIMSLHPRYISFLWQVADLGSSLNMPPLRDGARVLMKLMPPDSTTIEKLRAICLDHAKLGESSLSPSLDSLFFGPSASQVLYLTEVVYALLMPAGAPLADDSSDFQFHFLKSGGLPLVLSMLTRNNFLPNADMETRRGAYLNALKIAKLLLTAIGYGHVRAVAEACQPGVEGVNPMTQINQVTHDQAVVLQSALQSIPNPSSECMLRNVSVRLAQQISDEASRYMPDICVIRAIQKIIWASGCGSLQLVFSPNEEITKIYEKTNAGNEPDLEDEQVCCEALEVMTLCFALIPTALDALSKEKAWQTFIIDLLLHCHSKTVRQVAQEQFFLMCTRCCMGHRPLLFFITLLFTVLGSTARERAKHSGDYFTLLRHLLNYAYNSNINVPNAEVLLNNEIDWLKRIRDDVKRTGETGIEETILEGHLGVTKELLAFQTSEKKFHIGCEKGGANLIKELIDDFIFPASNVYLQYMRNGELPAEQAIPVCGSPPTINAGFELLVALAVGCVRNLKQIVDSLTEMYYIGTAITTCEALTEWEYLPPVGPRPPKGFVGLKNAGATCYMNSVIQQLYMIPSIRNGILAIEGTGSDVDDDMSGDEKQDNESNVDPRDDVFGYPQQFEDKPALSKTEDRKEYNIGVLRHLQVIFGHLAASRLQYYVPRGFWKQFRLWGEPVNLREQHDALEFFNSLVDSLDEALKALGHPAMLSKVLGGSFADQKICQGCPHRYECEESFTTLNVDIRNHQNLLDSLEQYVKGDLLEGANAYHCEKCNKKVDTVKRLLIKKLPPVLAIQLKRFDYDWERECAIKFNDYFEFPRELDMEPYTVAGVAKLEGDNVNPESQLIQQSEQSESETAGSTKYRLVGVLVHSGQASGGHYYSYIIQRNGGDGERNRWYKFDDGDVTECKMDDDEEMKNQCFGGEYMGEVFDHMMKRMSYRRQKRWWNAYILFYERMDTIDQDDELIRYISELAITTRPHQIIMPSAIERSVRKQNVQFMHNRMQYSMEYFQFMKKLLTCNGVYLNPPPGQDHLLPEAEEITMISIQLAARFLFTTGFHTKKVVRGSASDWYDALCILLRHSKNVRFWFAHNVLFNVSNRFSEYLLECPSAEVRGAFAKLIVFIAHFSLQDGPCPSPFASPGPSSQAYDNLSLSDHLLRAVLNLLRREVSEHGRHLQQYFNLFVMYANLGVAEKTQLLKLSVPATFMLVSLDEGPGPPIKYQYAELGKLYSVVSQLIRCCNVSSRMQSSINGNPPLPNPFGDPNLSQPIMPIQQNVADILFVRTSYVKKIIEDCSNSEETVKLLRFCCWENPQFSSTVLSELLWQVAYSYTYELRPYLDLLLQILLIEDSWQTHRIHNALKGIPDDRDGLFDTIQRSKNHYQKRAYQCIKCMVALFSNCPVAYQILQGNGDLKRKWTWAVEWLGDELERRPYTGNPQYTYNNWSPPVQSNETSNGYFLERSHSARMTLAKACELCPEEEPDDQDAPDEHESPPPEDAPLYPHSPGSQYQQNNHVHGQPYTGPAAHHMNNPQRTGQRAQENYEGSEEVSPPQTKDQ

[6] = molecular target: DUBs and other proteins in HEK293 cells (Homo sapiens, UniProt P51784); assay: as above; settings: USP11, listed as ABP 2
DUBs and other proteins in HEK293 cells (Homo sapiens, UniProt P51784), sequence (P51784 whole entry): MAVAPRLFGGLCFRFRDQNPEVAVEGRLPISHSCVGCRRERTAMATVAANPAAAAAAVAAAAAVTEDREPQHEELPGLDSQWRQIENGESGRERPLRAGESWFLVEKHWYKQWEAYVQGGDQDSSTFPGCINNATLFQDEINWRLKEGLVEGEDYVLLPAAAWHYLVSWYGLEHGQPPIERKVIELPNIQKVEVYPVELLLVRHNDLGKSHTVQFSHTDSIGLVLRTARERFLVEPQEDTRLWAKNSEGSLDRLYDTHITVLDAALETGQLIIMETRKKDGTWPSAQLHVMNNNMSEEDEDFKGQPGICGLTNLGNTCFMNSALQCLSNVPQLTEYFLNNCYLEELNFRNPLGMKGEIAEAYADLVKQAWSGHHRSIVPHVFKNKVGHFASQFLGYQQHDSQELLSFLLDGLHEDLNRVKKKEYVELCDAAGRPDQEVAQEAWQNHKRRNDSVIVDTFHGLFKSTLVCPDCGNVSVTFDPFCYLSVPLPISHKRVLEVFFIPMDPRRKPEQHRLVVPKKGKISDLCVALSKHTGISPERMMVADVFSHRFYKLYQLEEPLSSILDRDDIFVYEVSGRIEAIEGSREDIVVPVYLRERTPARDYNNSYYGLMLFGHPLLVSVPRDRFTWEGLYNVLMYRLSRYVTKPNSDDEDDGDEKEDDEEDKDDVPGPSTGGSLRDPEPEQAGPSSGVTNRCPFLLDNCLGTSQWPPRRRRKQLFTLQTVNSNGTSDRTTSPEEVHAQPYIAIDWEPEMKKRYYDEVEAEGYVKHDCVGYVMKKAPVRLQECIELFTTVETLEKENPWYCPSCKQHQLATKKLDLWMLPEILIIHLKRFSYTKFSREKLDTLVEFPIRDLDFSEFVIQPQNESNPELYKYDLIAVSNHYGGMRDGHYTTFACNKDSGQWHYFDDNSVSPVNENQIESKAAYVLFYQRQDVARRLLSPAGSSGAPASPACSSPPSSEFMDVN

[7] = molecular target: T1, DUBs and other proteins in HEK293 cells (Homo sapiens, UniProt Q9Y4E8); assay: as above; settings: USP15, listed as ABP 2
T1 sequence (Q9Y4E8 1-981): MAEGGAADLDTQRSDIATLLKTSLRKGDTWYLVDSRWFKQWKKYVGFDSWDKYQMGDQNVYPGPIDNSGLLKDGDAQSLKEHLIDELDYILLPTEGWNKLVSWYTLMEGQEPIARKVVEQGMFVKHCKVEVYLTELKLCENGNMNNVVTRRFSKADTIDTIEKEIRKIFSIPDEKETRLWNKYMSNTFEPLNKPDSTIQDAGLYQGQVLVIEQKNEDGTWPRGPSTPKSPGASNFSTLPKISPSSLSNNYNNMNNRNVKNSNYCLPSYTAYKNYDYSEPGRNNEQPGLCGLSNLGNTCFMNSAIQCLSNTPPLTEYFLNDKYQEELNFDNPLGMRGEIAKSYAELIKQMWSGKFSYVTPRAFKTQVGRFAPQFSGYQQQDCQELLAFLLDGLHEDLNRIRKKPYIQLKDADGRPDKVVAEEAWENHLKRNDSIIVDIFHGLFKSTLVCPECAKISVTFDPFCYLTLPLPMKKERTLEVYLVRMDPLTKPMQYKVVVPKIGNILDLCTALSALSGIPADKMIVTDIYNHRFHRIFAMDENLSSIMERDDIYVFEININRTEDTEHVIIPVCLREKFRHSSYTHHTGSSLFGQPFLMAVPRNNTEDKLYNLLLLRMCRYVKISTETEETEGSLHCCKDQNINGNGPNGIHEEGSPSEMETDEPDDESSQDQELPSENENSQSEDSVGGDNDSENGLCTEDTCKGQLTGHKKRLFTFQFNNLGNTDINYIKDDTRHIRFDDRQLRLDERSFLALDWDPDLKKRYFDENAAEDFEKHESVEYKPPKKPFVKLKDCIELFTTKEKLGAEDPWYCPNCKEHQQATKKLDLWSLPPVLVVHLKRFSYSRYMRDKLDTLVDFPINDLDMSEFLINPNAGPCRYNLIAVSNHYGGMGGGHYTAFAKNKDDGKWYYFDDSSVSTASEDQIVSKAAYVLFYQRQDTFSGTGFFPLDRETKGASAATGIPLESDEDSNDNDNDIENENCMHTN

[8] = ABP 2 stability in cell culture medium (in-gel fluorescence readout); settings: DMEM medium, 37 °C, then 1 h on HEK293 cells
EIF3H = EIF3H (Homo sapiens, UniProt O15372); assay: Quantitative chemical proteomic profiling of ABP 2 in HEK293 cells: EIF3H; settings: for Log2 reporter intensity values (Log2FC, DMSO substract): EIF3H, listed as ABP 2
[9] = 200 nM, 180 min, replicates A,C

- Log2 reporter intensity values (Log2FC, DMSO substract) ([1]; 2 nM, 60 min, replicates A-C): 0.1769 and 0.1167 and 0.05908
- Log2 reporter intensity values (Log2FC, DMSO substract) ([1]; 20 nM, 10 min, replicates B,C): 0.07104
- Log2 reporter intensity values (Log2FC, DMSO substract) ([1]; 20 nM, 60 min, replicates A-C): 0.004019
- Log2 reporter intensity values (Log2FC, DMSO substract) ([1]; 20 nM, 180 min, replicates A-C): -0.1034 and 0.07381 and 0.1015
- Log2 reporter intensity values (Log2FC, DMSO substract) ([1]; 200 nM, 10 min, replicates B,C): 0.1233 and 0.1033
- Log2 reporter intensity values (Log2FC, DMSO substract) ([1]; 200 nM, 60 min, replicates A-C): 0.176 and 0.4057 and 0.2275
- Log2 reporter intensity values (Log2FC, DMSO substract) [1, 9]: 0.3761 and 0.4198
- Log2 reporter intensity values (Log2FC, DMSO substract) ([2]; 2 nM, 60 min, replicates A-C): -0.06588 and -0.04701 and -0.09225
- Log2 reporter intensity values (Log2FC, DMSO substract) ([2]; 20 nM, 10 min, replicates B,C): -0.04258 and -0.0756
- Log2 reporter intensity values (Log2FC, DMSO substract) ([2]; 20 nM, 60 min, replicates A-C): -0.1603 and -0.1771 and -0.09715
- Log2 reporter intensity values (Log2FC, DMSO substract) ([2]; 20 nM, 180 min, replicates A-C): -0.4052 and -0.02523 and -0.1285
- Log2 reporter intensity values (Log2FC, DMSO substract) ([2]; 200 nM, 10 min, replicates B,C): -0.213 and -0.1784
- Log2 reporter intensity values (Log2FC, DMSO substract) ([2]; 200 nM, 60 min, replicates A-C): 0.0802 and -0.1457 and -0.1731
- Log2 reporter intensity values (Log2FC, DMSO substract) [2, 9]: -0.0003694 and 0.003479
- Log2 reporter intensity values (Log2FC, DMSO substract) ([3]; 2 nM, 60 min, replicates A-C): 0.01071 and 0.05631 and -0.04364
- Log2 reporter intensity values (Log2FC, DMSO substract) ([3]; 20 nM, 10 min, replicates B,C): 0.009394 and 0.07693
- Log2 reporter intensity values (Log2FC, DMSO substract) ([3]; 20 nM, 60 min, replicates A-C): 0.05332 and 0.1025
- Log2 reporter intensity values (Log2FC, DMSO substract) ([3]; 20 nM, 180 min, replicates A-C): 0.1385 and 0.1351 and 0.05551
- Log2 reporter intensity values (Log2FC, DMSO substract) ([3]; 200 nM, 10 min, replicates B,C): 0.1048
- Log2 reporter intensity values (Log2FC, DMSO substract) ([3]; 200 nM, 60 min, replicates A-C): 0.05455 and 0.04834 and 0.1109
- Log2 reporter intensity values (Log2FC, DMSO substract) [3, 9]: -0.08272 and -0.01544
- Log2 reporter intensity values (Log2FC, DMSO substract) ([4]; 2 nM, 60 min, replicates A-C): 0.06357 and 0.017 and -0.3747
- Log2 reporter intensity values (Log2FC, DMSO substract) ([4]; 20 nM, 10 min, replicates B,C): -0.07969 and -0.2354
- Log2 reporter intensity values (Log2FC, DMSO substract) ([4]; 20 nM, 60 min, replicates A-C): 0.02327 and -0.09058 and -0.2812
- Log2 reporter intensity values (Log2FC, DMSO substract) ([4]; 20 nM, 180 min, replicates A-C): -0.1814 and -0.1595 and -0.1999
- Log2 reporter intensity values (Log2FC, DMSO substract) ([4]; 200 nM, 10 min, replicates B,C): 0.1137
- Log2 reporter intensity values (Log2FC, DMSO substract) ([4]; 200 nM, 60 min, replicates A-C): -0.04347 and 0.1524 and 0.1409
- Log2 reporter intensity values (Log2FC, DMSO substract) [4, 9]: -0.01106 and 0.3029
- Log2 reporter intensity values (Log2FC, DMSO substract) ([5]; 2 nM, 60 min, replicates A-C): 0.06074 and 0.05768 and -0.1222
- Log2 reporter intensity values (Log2FC, DMSO substract) ([5]; 20 nM, 10 min, replicates B,C): 0.0266 and 0.08583
- Log2 reporter intensity values (Log2FC, DMSO substract) ([5]; 20 nM, 60 min, replicates A-C): -0.07107 and -0.1083 and 0.02034
- Log2 reporter intensity values (Log2FC, DMSO substract) ([5]; 20 nM, 180 min, replicates A-C): -0.3167 and 0.0151 and 0.03374
- Log2 reporter intensity values (Log2FC, DMSO substract) ([5]; 200 nM, 10 min, replicates B,C): 0.03305 and -0.1026
- Log2 reporter intensity values (Log2FC, DMSO substract) ([5]; 200 nM, 60 min, replicates A-C): 0.09885 and 0.2045 and -0.1344
- Log2 reporter intensity values (Log2FC, DMSO substract) [5, 9]: 0.109 and 0.1534
- Log2 reporter intensity values (Log2FC, DMSO substract) ([6]; 2 nM, 60 min, replicates A-C): 0.1233 and -0.3054 and -0.2167
- Log2 reporter intensity values (Log2FC, DMSO substract) ([6]; 20 nM, 10 min, replicates B,C): -0.09443 and -0.2626
- Log2 reporter intensity values (Log2FC, DMSO substract) ([6]; 20 nM, 60 min, replicates A-C): -0.4096 and 0.07333 and 0.009688
- Log2 reporter intensity values (Log2FC, DMSO substract) ([6]; 20 nM, 180 min, replicates A-C): -0.127 and -0.3984 and -0.1331
- Log2 reporter intensity values (Log2FC, DMSO substract) ([6]; 200 nM, 10 min, replicates B,C): 0.008113 and -0.08322
- Log2 reporter intensity values (Log2FC, DMSO substract) ([6]; 200 nM, 60 min, replicates A-C): 0.1655 and -0.03212 and -0.2868
- Log2 reporter intensity values (Log2FC, DMSO substract) [6, 9]: 0.2311 and 0.03651
- Log2 reporter intensity values (Log2FC, DMSO substract) ([7]; 2 nM, 60 min, replicates A-C): 0.1138 and 0.004511 and -0.04471
- Log2 reporter intensity values (Log2FC, DMSO substract) ([7]; 20 nM, 10 min, replicates B,C): 0.2038 and 0.1797
- Log2 reporter intensity values (Log2FC, DMSO substract) ([7]; 20 nM, 60 min, replicates A-C): 0.04003 and 0.2301 and -0.05461
- Log2 reporter intensity values (Log2FC, DMSO substract) ([7]; 20 nM, 180 min, replicates A-C): -0.06212 and 0.248 and 0.23
- Log2 reporter intensity values (Log2FC, DMSO substract) ([7]; 200 nM, 10 min, replicates B,C): -0.05955 and -0.05362
- Log2 reporter intensity values (Log2FC, DMSO substract) ([7]; 200 nM, 60 min, replicates A-C): 0.07483 and 0.06943 and 0.1943
- Log2 reporter intensity values (Log2FC, DMSO substract) [7, 9]: 0.004999 and 0.2331
- stability in media without loss of activity [8]: > 72 h
- Log2 reporter intensity values (Log2FC, DMSO substract) (EIF3H; 2 nM, 60 min, replicates A-C): 0.03927 and 0.1861 and 0.1127
- Log2 reporter intensity values (Log2FC, DMSO substract) (EIF3H; 20 nM, 10 min, replicates B,C): 0.003189 and 0.05275
- Log2 reporter intensity values (Log2FC, DMSO substract) (EIF3H; 20 nM, 60 min, replicates A-C): 0.08479 and -0.05372 and 0.1466
- Log2 reporter intensity values (Log2FC, DMSO substract) (EIF3H; 20 nM, 180 min, replicates A-C): -0.0501 and -0.006928 and -0.004662
- Log2 reporter intensity values (Log2FC, DMSO substract) (EIF3H; 200 nM, 10 min, replicates B,C): 0.1905 and -0.004432
- Log2 reporter intensity values (Log2FC, DMSO substract) (EIF3H; 200 nM, 60 min, replicates A-C): 0.08499 and -0.02572 and 0.1313
- Log2 reporter intensity values (Log2FC, DMSO substract) (EIF3H; [9]): -0.03275 and 0.07608
- Log2 t-test Difference, EIF3H, 2 nM (EIF3H; HEK293, 2 nM vs DMSO, 1 h, enrichment, TMT, n=3): 0.1127
- Log2 t-test Difference, EIF3H, 20 nM (EIF3H; HEK293, 20 nM vs DMSO, 1 h, enrichment, TMT, n=3): 0.05921
- Log2 t-test Difference, EIF3H, 200 nM (EIF3H; HEK293, 200 nM vs DMSO, 1 h, enrichment, TMT, n=3): 0.06352
SMILES: C#Cc1cnc2[nH]cc(-c3cccc4c3CCN4C(=O)[C@@H]3CCCN3C#N)c2c1 [Compound 2]
